Laboratory results as given in patent US20260070929A1, “METHODS AND COMPOSITIONS FOR MODULATING KRAS(G12D)” (Ranok Therapeutics (Hangzhou) Co. LTD., priority 2022, published 2026).

Legend:
KRAS(G12D)/SOS1 = target: T1, KRAS(G12D)/SOS1 (Homo sapiens, UniProt P01116, G12D); assay: KRAS(G12D)/SOS1 homogeneous time-resolved fluorescence (HTRF) assay; assay type: binding; conditions: absence of GTP; 4° C., 3 hr
T1 construct: purchased Cisbio 63ADK000CB17PEH
Experimental: Binding of test compounds to KRAS(G12D) target protein, which in turn blocks KRAS(G12D) interaction with the SOS1 protein, was measured in the absences of GTP by homogeneous time-resolved fluorescence using the KRAS-G12D/SOS1 Binding Assay Kit (Cisbio, 63ADK000CB17PEH), following the manufacturer's instructions, except as noted. 3-fold serial dilutions of each test compound were prepared ranging from 20 µM to 1.02 nM. The test compound was mixed and incubated with reaction components, incubated in a sealed plate at 4° C. for 3 hr and fluorescence was measured using a PerkinElmer Envision plate reader. The KRAS(G12D)-SOS1 IC50 values (the concentration of 50% of the maximal inhibition) were calculated using GraphPad Prism 7 software.

[1] = system: ASPC1 pancreatic adenocarcinoma cells [homozygous G12D]; assay: Cancer cell line proliferation (CellTiter-Glo), ASPC1; assay type: cell-based; conditions: Homo sapiens, ASPC1, 72 h, 72 hr treatment, read-out: ASPC-1 CTG (EC50)
Experimental: (§1) The following cancer cell lines were employed: AGS gastric carcinoma [heterozygous G12D](ATCC, CRL-1739); A-427 lung carcinoma [heterozygous G12D](ATCC, HTB-53); ASPC1 pancreatic adenocarcinoma [homozygous G12D](ATCC, CRL-1682) and SW1990 pancreatic adenocarcinoma [homozygous G12D](ATCC CRL-2172). Cell lines were cultured essentially according to ATCC recommendations.
(§2) AGS, A-427, ASPC1, SW1990, and GP2D cells were plated in 96-well tissue culture plates at 4,000 cells/well and incubated at 37° C./5% CO2 for 72 hr in 100 μl of media. 3-fold serial dilutions of each test compound were prepared ranging from 20 μM to 1.02 nM. Each cell line was then treated with test compounds at various concentrations with a final concentration of 0.5% DMSO/well, and then incubated at 37° C./5% CO2 for 72 hr. 100 µl of CellTiter-Glo® Reagent (Promega Corporation, Madison, WI) was added to each well and processed according manufacturer's protocol. Results were analyzed and EC50 values were calculated in GraphPad 7 software.

[2] = system: A-427 lung carcinoma cells [heterozygous G12D]; assay: Cancer cell line proliferation (CellTiter-Glo), A-427; assay type: cell-based; conditions: Homo sapiens, A-427 cells, 72 hr treatment, read-out: A427 CTG (EC50)
Experimental: as §1, §2

[3] = system: AGS gastric carcinoma cells [heterozygous G12D]; assay: Cancer cell line proliferation (CellTiter-Glo), AGS; assay type: cell-based; conditions: Homo sapiens, 72 hr treatment, read-out: AGS CTG (EC50)
Experimental: as §1, §2

T1 sequence (P01116 1-188 isoform P01116-2 G12D): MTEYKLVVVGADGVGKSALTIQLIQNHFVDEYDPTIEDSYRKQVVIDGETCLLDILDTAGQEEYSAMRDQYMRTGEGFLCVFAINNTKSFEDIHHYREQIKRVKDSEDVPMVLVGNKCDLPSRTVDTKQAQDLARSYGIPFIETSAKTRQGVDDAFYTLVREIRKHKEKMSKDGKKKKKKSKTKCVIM

Row | SMILES | IC50 (KRAS(G12D)/SOS1) [nM] | EC50 [1] [nM] | EC50 [2] [nM] | EC50 [3] [nM]
1 | CC(C)c1cc(-c2nnc(O)n2-c2ccc(CN3CCN(C(=O)C4CCN([C@H]5C[C@@H](COc6nc(N7CC8CCC(C7)N8)c7cnc(-c8cccc9cccc(Cl)c89)cc7n6)N(C)C5)CC4)CC3)cc2)c(O)cc1O [Compound 4] | 100 to 1000 | > 1000 | – | –
2 | CC(C)c1cc(-c2nnc(O)n2-c2ccc(CN3CCN(C(=O)C4CCN([C@H]5C[C@@H](COc6nc(N7CC8CCC(C7)N8)c7cnc(-c8cccc9cccc(Cl)c89)c(F)c7n6)N(C)C5)CC4)CC3)cc2)c(O)cc1O [Compound 5] | < 100 | > 1000 | > 1000 | –
3 | CCNC(=O)c1nnc(-c2cc(C(C)C)c(O)cc2O)n1-c1ccc(CN2CCN(C(=O)C3CCN([C@H]4C[C@@H](COc5nc(N6CC7CCC(C6)N7)c6cnc(-c7cccc8cccc(Cl)c78)c(F)c6n5)N(C)C4)CC3)CC2)cc1 [Compound 6] | 100 to 1000 | > 1000 | 100 to 1000 | 100 to 1000
4 | CNC(=O)c1nnc(-c2cc(C(C)C)c(O)cc2O)n1-c1ccc(CN2CCN(C(=O)C3CCN([C@H]4C[C@@H](COc5nc(N6CC7CCC(C6)N7)c6cnc(-c7cccc8cccc(Cl)c78)c(F)c6n5)N(C)C4)CC3)CC2)cc1 [Compound 7] | 100 to 1000 | 100 to 1000 | 100 to 1000 | < 100
5 | CNC(=O)c1nnc(-c2cc(C)c(O)cc2O)n1-c1ccc(CN2CCN(C(=O)C3CCN([C@H]4C[C@@H](COc5nc(C6CC7CCC(C6)N7)c6cnc(-c7cccc8cccc(Cl)c78)c(F)c6n5)N(C)C4)CC3)CC2)cc1 (stereo partly drawn) [Compound 8] | < 100 | > 1000 | > 1000 | > 1000
6 | CCc1cc(-c2nnc(C(=O)NC)n2-c2ccc(CN3CCN(C(=O)C4CCN([C@H]5C[C@@H](COc6nc(C7CC8CCC(C7)N8)c7cnc(-c8cccc9cccc(Cl)c89)c(F)c7n6)N(C)C5)CC4)CC3)cc2)c(O)cc1O (stereo partly drawn) [Compound 9] | 100 to 1000 | > 1000 | > 1000 | 100 to 1000
7 | C#Cc1cccc2cccc(-c3ncc4c(N5CC6CCC(C5)N6)nc(OCC5(CN6CCN(Cc7ccc(-n8c(O)nnc8-c8cc(C(C)C)c(O)cc8O)cc7)CC6)CC5)nc4c3F)c12 [Compound 10] | < 100 | > 1000 | 100 to 1000 | 100 to 1000
8 | C#Cc1cccc2cccc(-c3ncc4c(N5CC6CCC(C5)N6)nc(OCC5(CN6CCN(Cc7ccc8c(c7)CN(C(=O)c7cc(C(C)C)c(O)cc7O)C8)CC6)CC5)nc4c3F)c12 [Compound 11] | < 100 | 100 to 1000 | 100 to 1000 | 100 to 1000
9 | C#Cc1cccc2cccc(-c3ncc4c(N5CC6CCC(C5)N6)nc(OCC5(CN6CCN(Cc7ccc(-n8c(C(=O)NCC)nnc8-c8cc(C(C)C)c(O)cc8O)cc7)CC6)CC5)nc4c3F)c12 [Compound 12] | < 100 | 100 to 1000 | < 100 | < 100
10 | C#Cc1cccc2cccc(-c3ncc4c(N5CC6CCC(C5)N6)nc(OCCN5CCN(Cc6ccc(-n7c(O)nnc7-c7cc(C(C)C)c(O)cc7O)cc6)CC5)nc4c3F)c12 [Compound 13] | 100 to 1000 | > 1000 | 100 to 1000 | 100 to 1000
11 | C#Cc1cccc2cccc(-c3ncc4c(N5CC6CCC(C5)N6)nc(OCCN5CCN(Cc6ccc7c(c6)CN(C(=O)c6cc(C(C)C)c(O)cc6O)C7)CC5)nc4c3F)c12 [Compound 14] | 100 to 1000 | 100 to 1000 | 100 to 1000 | 100 to 1000
12 | C#Cc1cccc2cccc(-c3ncc4c(N5CC6CCC(C5)N6)nc(OC[C@@H]5CC[C@H](CN6CCN(Cc7ccc(-n8c(O)nnc8-c8cc(C(C)C)c(O)cc8O)cc7)CC6)N5C)nc4c3F)c12 [Compound 15] | < 100 | > 1000 | 100 to 1000 | 100 to 1000
13 | C#Cc1cccc2cccc(-c3ncc4c(N5CC6CCC(C5)N6)nc(OC[C@@H]5CC[C@H](CN6CCN(Cc7ccc(-n8c(C(=O)NCC)nnc8-c8cc(C(C)C)c(O)cc8O)cc7)CC6)N5C)nc4c3F)c12 [Compound 16] | < 100 | 100 to 1000 | < 100 | < 100
14 | C#Cc1cccc2cccc(-c3ncc4c(N5CC6CCC(C5)N6)nc(OCCN5CCN(Cc6ccc(-n7c(C(=O)NCC)nnc7-c7cc(C(C)C)c(O)cc7O)cc6)CC5)nc4c3F)c12 [Compound 17] | < 100 | 100 to 1000 | < 100 | < 100
15 | C#Cc1cccc2cccc(-c3ncc4c(N5CC6CCC(C5)N6)nc(OCC5(CN6CCN(C(=O)C7CCN(Cc8ccc(-n9c(O)nnc9-c9cc(C(C)C)c(O)cc9O)cc8)CC7)CC6)CC5)nc4c3F)c12 [Compound 18] | < 100 | > 1000 | 100 to 1000 | 100 to 1000
16 | C#Cc1cccc2cccc(-c3ncc4c(N5CC6CCC(C5)N6)nc(OCC5(CN6CCN(C(=O)C7CCN(Cc8ccc(-n9c(C(=O)NCC)nnc9-c9cc(C(C)C)c(O)cc9O)cc8)CC7)CC6)CC5)nc4c3F)c12 [Compound 19] | < 100 | 100 to 1000 | 100 to 1000 | < 100
17 | C#Cc1cccc2cccc(-c3ncc4c(N5CC6CCC(C5)N6)nc(OCCN5CCN(C(=O)C6CCN(Cc7ccc(-n8c(O)nnc8-c8cc(C(C)C)c(O)cc8O)cc7)CC6)CC5)nc4c3F)c12 [Compound 20] | 100 to 1000 | > 1000 | 100 to 1000 | 100 to 1000
18 | C#Cc1cccc2cccc(-c3ncc4c(N5CC6CCC(C5)N6)nc(OCCN5CCN(C(=O)C6CCN(Cc7ccc(-n8c(C(=O)NCC)nnc8-c8cc(C(C)C)c(O)cc8O)cc7)CC6)CC5)nc4c3F)c12 [Compound 21] | 100 to 1000 | > 1000 | 100 to 1000 | < 100
19 | Cc1cccc2cccc(-c3ncc4c(N5CC6CCC(C5)N6)nc(OC[C@@H]5C[C@H](N6CCN(Cc7ccc(-n8c(O)nnc8-c8cc(C(C)C)c(O)cc8O)cc7)CC6)CN5C)nc4c3F)c12 [Compound 22] | 100 to 1000 | > 1000 | 100 to 1000 | 100 to 1000
20 | Cc1cccc2cccc(-c3ncc4c(N5CC6CCC(C5)N6)nc(OC[C@@H]5C[C@H](N6CCC(C(=O)N7CCN(Cc8ccc(-n9c(O)nnc9-c9cc(C(C)C)c(O)cc9O)cc8)CC7)CC6)CN5C)nc4c3F)c12 [Compound 23] | 100 to 1000 | > 1000 | 100 to 1000 | 100 to 1000
21 | CCNC(=O)c1nnc(-c2cc(C(C)C)c(O)cc2O)n1-c1ccc(CN2CCC(C(=O)N3CCN([C@H]4C[C@@H](COc5nc(N6CC7CCC(C6)N7)c6cnc(-c7cccc8cccc(C)c78)c(F)c6n5)N(C)C4)CC3)CC2)cc1 [Compound 24] | 100 to 1000 | 100 to 1000 | < 100 | < 100
22 | CC(C)c1cc(-c2nnc(C(=O)NCC(F)(F)F)n2-c2ccc(CN3CCN([C@H]4C[C@@H](COc5nc(N6CC7CCC(C6)N7)c6cnc(-c7cccc8cccc(F)c78)c(F)c6n5)N(C)C4)CC3)cc2)c(O)cc1O [Compound 109] | 100 to 1000 | – | 100 to 1000 | < 100
23 | CC(C)c1cc(-c2nnc(C(=O)NC(C)C(F)(F)F)n2-c2ccc(CN3CCN(C[C@H]4C[C@@H](COc5nc(N6CC7CCC(C6)N7)c6cnc(-c7cc(O)cc8ccccc78)c(F)c6n5)N(C)C4)CC3)cc2)c(O)cc1O (stereo partly drawn) [Compound 118] | < 100 | – | 100 to 1000 | < 100
24 | C#Cc1cccc2cc(O)cc(-c3ncc4c(N5CC6CCC(C5)N6)nc(OCC5(CN6CCC(C(=O)N7CCN(Cc8ccc(-n9c(C(=O)NCC(F)(F)F)nnc9-c9cc(C(C)C)c(O)cc9O)cc8)CC7)CC6)CC5)nc4c3F)c12 [Compound 119] | < 100 | – | 100 to 1000 | < 100
25 | C#Cc1cccc2cc(O)cc(-c3ncc4c(N5CC6CCC(C5)N6)nc(OCC5(CN6CCC(C(=O)N7CCN(Cc8ccc9c(c8)CN(C(=O)c8cc(C(C)C)c(O)cc8O)C9)CC7)CC6)CC5)nc4c3F)c12 [Example 3, 4-{5-[(4-{1-[(1-{[(4-{3,8-diazabicyclo[3.2.1]octan-3-yl}-7-(8-ethynyl-3-hydroxynaphthalen-1-yl)-8-fluoropyrido[4,3-d]pyrimidin-2-yl)oxy]methyl}cyclopropyl)methyl]piperidine-4-carbonyl}piperazin-1-yl)methyl]-1,3-dihydroisoindole-2-carbonyl}-6-isopropylbenzene-1,3-diol] | < 100 | – | 100 to 1000 | < 100
